TGI and GI50 data for 9 molecules are collected here from PubChem BioAssay (NCI).

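96-well plates; 48 h exposure; 5 concentrations. Endpoints by linear interpolation between flanking doses. Not reached: highest tested concentration assigned. GI50 is the concentration that inhibits growth by half. TGI denotes the concentration required for complete inhibition of growth.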 Bounds are passed on as bounds.

Some test systems named below: MDA-MB-435; A498 renal; RXF 393 renal; SR leukemia; HCT-15 colon; PC-3 prostate; CAKI-1 renal; OVCAR-4 ovarian; OVCAR-8 ovarian; MCF7 breast.
Holding throughout (assay): NCI anticancer screen, dose series, 48 h

For the molecule `Cc1cc(Cl)nc2ccc(Cc3ccc4nc(Cl)cc(C)c4c3)cc12`, the TGI with MDA-MB-435 was above 100 µM; in the assay with A498 renal it was 69.1 µM; in the assay on RXF 393 renal, 27.6 µM; with SR leukemia, above 100 µM; in the assay on HCT-15 colon, above 100 µM; in the assay with PC-3 prostate it was above 100 µM. Further, the TGI with CAKI-1 renal is above 100 µM; in the assay on OVCAR-4 ovarian it was above 100 µM; in the assay on OVCAR-8 ovarian, above 100 µM; in the assay with MCF7 breast, 91.5 µM.
`C/C(=N\NC(=S)N1CCN(c2ccccn2)CC1)c1ccccn1`: the TGI was found to be 12.3 µM with MDA-MB-435; 15 µM in the assay on A498 renal; 13.4 µM in the assay on RXF 393 renal; 2.06 µM in the assay with SR leukemia; 14.5 µM in the assay on HCT-15 colon; 15.1 µM with PC-3 prostate. Further, the TGI turned out to be 15.5 µM in the assay with CAKI-1 renal, 12.6 µM in the assay with OVCAR-4 ovarian, 20.4 µM in the assay on OVCAR-8 ovarian and 11.4 µM in the assay on MCF7 breast. In addition, the GI50 is 1.67 µM in the assay on A498 renal, 0.0167 µM in the assay on SR leukemia, 0.301 µM with CAKI-1 renal and 1.08 µM in the assay with OVCAR-4 ovarian.
For the molecule `COc1ccc(/C=C/C(=O)c2c(O)ccc3c(C)c(C(=O)O)oc23)cc1`, the GI50 in the assay on MDA-MB-435 is 50.5 µM; in the assay on A498 renal, 14.9 µM; in the assay on RXF 393 renal, 55.5 µM; in the assay on SR leukemia, 19.2 µM; with HCT-15 colon it was 28.2 µM; with PC-3 prostate it was 66 µM. The GI50 was 63.2 µM in the assay on CAKI-1 renal, above 100 µM in the assay with OVCAR-4 ovarian, 61.3 µM in the assay with OVCAR-8 ovarian and 28.1 µM with MCF7 breast. In addition, the TGI in the assay with MDA-MB-435 is above 100 µM; in the assay with A498 renal, 67.7 µM; in the assay with RXF 393 renal, above 100 µM; in the assay on SR leukemia, 64.4 µM; with HCT-15 colon, above 100 µM; in the assay on PC-3 prostate, above 100 µM. Further, the TGI in the assay with CAKI-1 renal, with OVCAR-4 ovarian, in the assay with OVCAR-8 ovarian and in the assay with MCF7 breast was above 100 µM in each case.
In the case of `N#CC(C#N)=NNc1ccc2cn[nH]c2c1`, the TGI is above 100 µM in the assay with MDA-MB-435; above 100 µM with A498 renal; 55.4 µM in the assay on RXF 393 renal; 55.5 µM in the assay on SR leukemia; above 100 µM in the assay with HCT-15 colon; above 100 µM with PC-3 prostate. Also, the TGI is 96.4 µM in the assay on CAKI-1 renal, above 100 µM in the assay on OVCAR-4 ovarian, above 100 µM in the assay with OVCAR-8 ovarian and above 100 µM in the assay with MCF7 breast.
As to `COC(=O)C12CCC(C)(C)CC1C1=CCC3C4(C)CC(O)C(O)C(C)(C(=O)OC)C4CCC3(C)C1(CO)CC2` (centres undefined), the TGI came out at 32.4 µM with MDA-MB-435; 33.2 µM in the assay on A498 renal; 19.5 µM with RXF 393 renal; 31.4 µM in the assay on SR leukemia; 29.1 µM in the assay on HCT-15 colon; 22 µM with PC-3 prostate. For the same molecule, the TGI stood at 27.8 µM in the assay with CAKI-1 renal, 27.8 µM in the assay with OVCAR-4 ovarian, 31.5 µM in the assay with OVCAR-8 ovarian and 29.8 µM in the assay with MCF7 breast.
With `O=C(Cn1c(C(=O)c2ccc(Cl)cc2)nc(-c2ccc(Cl)cc2)c1-c1ccc(Cl)cc1)c1ccccc1`, the GI50 in the assay on MDA-MB-435, with A498 renal, in the assay on RXF 393 renal, with SR leukemia, in the assay with HCT-15 colon and in the assay on PC-3 prostate was above 100 µM each time. For the same molecule, the GI50 with CAKI-1 renal, in the assay on OVCAR-4 ovarian, in the assay with OVCAR-8 ovarian and in the assay on MCF7 breast was above 100 µM throughout. Further, the TGI with MDA-MB-435, with A498 renal, with RXF 393 renal, in the assay on SR leukemia, in the assay on HCT-15 colon and in the assay on PC-3 prostate was above 100 µM throughout. Further, the TGI in the assay with CAKI-1 renal, in the assay on OVCAR-4 ovarian, with OVCAR-8 ovarian and with MCF7 breast was above 100 µM throughout.
Turning to `O=[N+]([O-])c1ccc(/C=C/c2nc3ccc(Cl)cc3[nH]2)cc1`, the GI50 in the assay with MDA-MB-435 was 5.36 µM; in the assay with A498 renal, 13.9 µM; in the assay with RXF 393 renal it was 71.7 µM; in the assay with SR leukemia it was 4.95 µM; in the assay with HCT-15 colon, 11.7 µM; in the assay on PC-3 prostate, 21.8 µM. Further, the GI50 with CAKI-1 renal is 34.6 µM; in the assay with OVCAR-4 ovarian it was 74 µM; with OVCAR-8 ovarian, 24.5 µM; with MCF7 breast, 21.5 µM. The TGI in the assay on MDA-MB-435 was above 100 µM; in the assay with A498 renal, 44.2 µM; in the assay on RXF 393 renal, above 100 µM; in the assay with SR leukemia, above 100 µM; in the assay on HCT-15 colon it was above 100 µM; in the assay on PC-3 prostate, above 100 µM. For the same molecule, the TGI in the assay on CAKI-1 renal is 91 µM; in the assay on OVCAR-4 ovarian it was above 100 µM; with OVCAR-8 ovarian it was 63.6 µM; with MCF7 breast, above 100 µM.
On to `ClCCCSSCCCCl`, for which the TGI is above 60.5 µM with MDA-MB-435; above 100 µM in the assay with A498 renal; above 100 µM in the assay on RXF 393 renal; above 25.8 µM in the assay on SR leukemia; 57.7 µM in the assay with HCT-15 colon; 85.5 µM in the assay on PC-3 prostate. Moreover, the TGI in the assay on CAKI-1 renal is above 100 µM; with OVCAR-4 ovarian it was above 90.7 µM; in the assay on OVCAR-8 ovarian it was above 75.8 µM; in the assay on MCF7 breast it was 97.6 µM.
`CNC(=O)c1nn(C)c2c1C(C)(C)Cc1cnc(Nc3cccc(N4CCN(C)CC4)c3)nc1-2`: the GI50 with MDA-MB-435 was 0.335 µM; in the assay on A498 renal, 0.0254 µM; in the assay on RXF 393 renal, 0.147 µM; with SR leukemia, 0.286 µM; in the assay on HCT-15 colon, 0.186 µM; with PC-3 prostate, 0.189 µM. Further, the GI50 with CAKI-1 renal is 0.0636 µM; in the assay on OVCAR-4 ovarian it was 0.409 µM; in the assay on OVCAR-8 ovarian, 1.25 µM; in the assay with MCF7 breast, 0.304 µM. Also, the TGI in the assay with MDA-MB-435 is 11.8 µM; in the assay with A498 renal, 0.389 µM; with RXF 393 renal it was 1.38 µM; in the assay on SR leukemia it was 7.88 µM; in the assay with HCT-15 colon, above 40.7 µM; in the assay on PC-3 prostate, 7.24 µM. The TGI with CAKI-1 renal worked out at 1.9 µM; in the assay on OVCAR-4 ovarian, 44.3 µM; in the assay on OVCAR-8 ovarian, 22.3 µM; in the assay on MCF7 breast, 15.5 µM.
